Laboratory results taken from patent publication US20250241891A1, “TREATMENT OF ANXIETY” (GH RESEARCH IRELAND LIMITED, priority 2022, published 2025).

System: patients with postpartum depression (PPD)
Experiment: Clinical trial of inhaled 5-MeO-DMT in postpartum depression (MADRS, BPRS, BIMF, PES, safety)
Protocol: The single-arm, open-label clinical trial will involve 15 adult female patients with clinically diagnosed postpartum depression (PPD).
The second dose (12 mg) will only be administered if: • a. […] The 6 mg dose was safe and well-tolerated according to the investigator, • c. Any psychoactive effects (PsE) of the prior dose have subsided, and • d. Pre-dose vital parameters and forced expiratory volume in one second (FEV1) are in normal range, or if outside of the normal range, are not clinically significant according to the investigator. • 3. Similarly, a third dose (18 mg) will only be administered if: • a. […] The 12 mg dose was safe and well-tolerated according to the investigator, and • c. Any PsE of the prior dose have subsided, and • d. Pre-dose vital parameters and forced expiratory volume in one second (FEV1) are in normal range, or if outside of the normal range, are not clinically significant according to the investigator.
The patients will be assessed for a peak psychedelic experience (based on a patient-scored visual analogue scale, the PE scale), sedation, and other endpoints after dosing. Follow-up visits are planned for Day 1, and Day 7 after the dosing day.
The following criteria must be met by all patients considered for clinical trial participation: • 1. Is female and in the age range between 18 and 45 years (inclusive) at screening. • 2. Has a body mass index (BMI) in the range of 18.5 and 35 kg/m^2 (inclusive) at screening. • 3. Meets the trial criteria for PPD as assessed by a trial psychiatrist or registered psychologist: • a. Diagnosis of Major Depressive Disorder without psychotic features, confirmed by the Mini-International Neuropsychiatric Interview (MINI), with peri-partum onset that began no earlier than gestation and no later than the first 4 weeks postpartum. • b. Has a Montgomery-Åsberg Depression Rating Scale (MADRS) total score of equal to or greater than 28 at screening and pre-dose on Day 0. • 6. […] Patients must have a negative pregnancy test at screening and on the pre-test day (Day −1). • 5. Is willing to delay start of other antidepressant or anxiety medication until after the end of the trial at Day 7 and agrees to keep any psychotherapy unchanged during the trial.
A potential patient who meets any of the following key exclusion criteria will be excluded from participation in this trial: • 1. Has, based on history, psychiatric assessment, and evaluation of the MINI, a current or prior diagnosis of bipolar disorder, a manic or hypomanic episode, a psychotic disorder, Major Depressive Disorder (MDD) or other mood disorder with psychotic features, obsessive compulsive disorder, post-traumatic stress disorder (PTSD), autism spectrum disorder, borderline personality disorder, schizophrenia, delusional disorder, paranoid personality disorder, schizoaffective disorder, clinically significant intellectual disability, or any other psychiatric comorbidity that renders the patient unsuitable for the trial according to the investigator's judgment. • 2. Has one or more first or second degree relatives with a current or previously diagnosed bipolar disorder, psychotic disorder or other mood disorder (including MDD) with psychotic features. • 3. Is in the judgement of a trial psychiatrist or registered psychologist, at significant risk for suicide based on history, psychiatric assessment, and evaluation of suicidal ideation and suicidal behaviour based on the Columbia-Suicide Severity Rating Scale (C-SSRS). • 4. Has taken anti-depressive medication within 14 days or 5 half-lives (whichever is longer) prior to dosing (exception: within the last 5 weeks in the case of fluoxetine). • 5.

[1] = PPD n=1, IDR 6+12 mg inhaled, 2 hr, baseline 0
[2] = PPD n=1, IDR 6+12 mg inhaled, 2 hr, baseline 3
[3] = PPD n=1, IDR 6+12 mg inhaled, 2 hr, baseline 4
[4] = PPD n=1, IDR 6+12 mg inhaled, 2 hr, baseline 5
[5] = PPD n=1, IDR 6+12 mg inhaled, Day 7, Day 0 score 5
[6] = PPD n=1, IDR 6+12 mg inhaled, Day 7, Day 0 score 6
[7] = PPD n=1, IDR 6+12 mg inhaled, Day 7 vs Day 0
[8] = PPD n=1, IDR 6+12 mg inhaled, day 1, baseline 0
[9] = PPD n=1, IDR 6+12 mg inhaled, day 1, baseline 1
[10] = PPD n=1, IDR 6+12 mg inhaled, day 1, baseline 2
[11] = PPD n=1, IDR 6+12 mg inhaled, day 1, baseline 3
[12] = PPD n=1, IDR 6+12 mg inhaled, day 1, baseline 4
[13] = PPD n=1, IDR 6+12 mg inhaled, day 1, baseline 5

COc1ccc2[nH]cc(CCN(C)C)c2c1 [5-MeO-DMT]
tolerability of the inhalation procedure (PPD n=1): well tolerated with no inhalation-related adverse events | MADRS remission criteria (MADRS total score equal or less than 10) (PPD n=1, IDR 6+12 mg inhaled): fulfilled | MADRS response criteria (at least 50% improvement from baseline) (PPD n=1, IDR 6+12 mg inhaled): fulfilled | reported adverse events (cramping left abdominal pain and headache, Day 0) (PPD n=1, IDR 6+12 mg inhaled): mild, short-lasting and resolved spontaneously | time to clinical response after administration (PPD n=1, IDR 6+12 mg inhaled): ≤ 2 h | durability of clinical response (PPD n=1, IDR 6+12 mg inhaled given on one day): sustained over the 7-day follow-up period | MADRS Concentration Difficulties improvement [1]: 0 | MADRS Concentration Difficulties score [1]: 0 | MADRS Reduced appetite improvement [1]: 0 | MADRS Reduced appetite score [1]: 0 | MADRS Suicidal Thoughts improvement [1]: 0 | MADRS Suicidal Thoughts score [1]: 0 | MADRS Inability to Feel improvement [2]: 3 | MADRS Inability to Feel score [2]: 0 | MADRS Lassitude improvement [2]: 3 | MADRS Lassitude score [2]: 0 | MADRS Pessimistic Thoughts improvement [3]: 4 | MADRS Pessimistic Thoughts score [3]: 0 | MADRS Reported sadness improvement [3]: 4 | MADRS Reported sadness score [3]: 0 | MADRS Apparent sadness improvement [4]: 5 | MADRS Apparent sadness score [4]: 0 | MADRS Inner Tension improvement [4]: 5 | MADRS Inner Tension score [4]: 0 | MADRS Reduced Sleep improvement [4]: 0 | MADRS Reduced Sleep score [4]: 5 | BIMF item 18 score: Anxiety or worry often interferes with my mothering ability (PPD n=1, IDR 6+12 mg inhaled, Day 7, Day 0 score 2): 5 | BIMF item 16 score: I worry about how other people judge me (as a mother) (PPD n=1, IDR 6+12 mg inhaled, Day 7, Day 0 score 3): 5 | BIMF item 13 score: I am taking good care of my physical needs (eating, showering, etc) (PPD n=1, IDR 6+12 mg inhaled, Day 7, Day 0 score 4): 5 | BIMF item 10 score: I trust my own feelings (instincts) when it comes to taking care of my baby [5]: 6 | BIMF item 17 score: I am able to take care of my baby and my other responsibilities [5]: 5 | BIMF item 3 score: I am comfortable with the way I've chosen to feed my baby (either bottle or breast, or both) [6]: 6 | BIMF item 6 score: There are people in my life that I can trust to care for my baby when I need a break [6]: 6 | BIMF item 12 score: I am taking good care of my baby's physical needs (feedings, changing diapers, doctor's appointments) [6]: 6 | BIMF item 14 score: I make good decisions about my baby's health and well being [6]: 6 | BIMF functional domain Adjustment Δ (Day 7) [7]: 1 | BIMF functional domain Infant Care Δ (Day 7) [7]: 0 | BIMF functional domain Management Δ (Day 7) [7]: 5 | BIMF functional domain Mother-Child Interaction Δ (Day 7) [7]: 2 | BIMF functional domain Psychological Well-being Δ (Day 7) [7]: 9 | BIMF functional domain Self Care Δ (Day 7) [7]: 4 | BIMF functional domain Social Support Δ (Day 7) [7]: 1 | BIMF item 1 Δ (Day 7): I am a good mother [7]: 0 | BIMF item 2 Δ (Day 7): I feel rested [7]: 2 | BIMF item 3 Δ (Day 7): I am comfortable with the way I've chosen to feed my baby (either bottle or breast, or both) [7]: 0 | BIMF item 4 Δ (Day 7): My baby and I understand each other [7]: 0 | BIMF item 5 Δ (Day 7): I am able to relax and enjoy time with my baby [7]: 1 | BIMF item 6 Δ (Day 7): There are people in my life that I can trust to care for my baby when I need a break [7]: 0 | BIMF item 8 Δ (Day 7): I am getting enough adult interaction [7]: 0 | BIMF item 9 Δ (Day 7): I am getting enough encouragement from other people [7]: 1 | BIMF item 10 Δ (Day 7): I trust my own feelings (instincts) when it comes to taking care of my baby [7]: 1 | BIMF item 11 Δ (Day 7): I take a little time each week to do something for myself [7]: 1 | BIMF item 12 Δ (Day 7): I am taking good care of my baby's physical needs (feedings, changing diapers, doctor's appointments) [7]: 0 | BIMF item 13 Δ (Day 7): I am taking good care of my physical needs (eating, showering, etc) [7]: 1 | BIMF item 14 Δ (Day 7): I make good decisions about my baby's health and well being [7]: 0 | BIMF item 15 Δ (Day 7): My baby and I are getting into a routine [7]: 1 | BIMF item 16 Δ (Day 7): I worry about how other people judge me (as a mother) [7]: 2 | BIMF item 17 Δ (Day 7): I am able to take care of my baby and my other responsibilities [7]: 0 | BIMF item 18 Δ (Day 7): Anxiety or worry often interferes with my mothering ability [7]: 3 | BIMF item 19 Δ (Day 7): As time goes on, I am getting better at taking care of my baby [7]: 1 | BIMF item 20 Δ (Day 7): I am satisfied with the job I am doing as a new mother [7]: −1 | MADRS Concentration Difficulties improvement [8]: 0 | MADRS Concentration Difficulties score [8]: 0 | MADRS Reduced appetite improvement [8]: 0 | MADRS Reduced appetite score [8]: 0 | MADRS Suicidal Thoughts improvement [8]: 0 | MADRS Suicidal Thoughts score [8]: 0 | BPRS Blunted Affect score [9]: 1 | BPRS Blunted affect improvement [9]: 0 | BPRS Conceptual disorganization improvement [9]: 0 | BPRS Conceptual disorganization score [9]: 1 | BPRS Disorientation improvement [9]: 0 | BPRS Disorientation score [9]: 1 | BPRS Grandiosity improvement [9]: 0 | BPRS Grandiosity score [9]: 1 | BPRS Hallucinatory behaviour improvement [9]: 0 | BPRS Hallucinatory behaviour score [9]: 1 | BPRS Hostility improvement [9]: 0 | BPRS Hostility score [9]: 1 | BPRS Mannerisms and Posturing improvement [9]: 0 | BPRS Mannerisms and Posturing score [9]: 1 | BPRS Motor retardation improvement [9]: 0 | BPRS Motor retardation score [9]: 1 | BPRS Suspiciousness improvement [9]: 0 | BPRS Suspiciousness score [9]: 1 | BPRS Uncooperativeness improvement [9]: 0 | BPRS Uncooperativeness score [9]: 1 | BPRS Unusual Thought Content improvement [9]: 0 | BPRS Unusual Thought Content score [9]: 1 | BPRS Excitement improvement [10]: 1 | BPRS Excitement score [10]: 1 | MADRS Inability to Feel improvement [11]: 3 | MADRS Inability to Feel score [11]: 0 | MADRS Lassitude improvement [11]: 3 | MADRS Pessimistic Thoughts improvement [12]: 4 | MADRS Pessimistic Thoughts score [12]: 0 | MADRS Reported sadness improvement [12]: 4 | MADRS Reported sadness score [12]: 0 | BPRS Emotional Withdrawal score [13]: 1 | BPRS Emotional withdrawal improvement [13]: 4 | MADRS Apparent sadness improvement [13]: 5 | MADRS Apparent sadness score [13]: 0 | MADRS Inner Tension improvement [13]: 5 | MADRS Inner Tension score [13]: 0
